Results published in patent US10865204B2, “Degradation of cyclin-dependent kinase 4/6 (CDK4/6) by conjugation of CDK4/6 inhibitors with E3 ligase ligand and methods of use” (Dana-Farber Cancer Institute, Inc., priority 2016, dated 2020).

Experiments:
[1] = target: T1, CDK4 (Homo sapiens, UniProt P11802); experiment: Enzyme degradation assay (western blot), Jurkat cells, CDK4; type: cell-based; parameters: levels of CDK4, CDK6, and tubulin in wild-type (WT) or cereblon knockout (CRBN−/−) Molt4 cells; endogenous in cells; conditions: 5 μM, various time points, FIG. 1
Text: (§1) Lysates are then cleared by centrifugation.
(§2) Lysates were then cleared by centrifugation.

[2] = target: T1, CDK4; experiment: Enzyme degradation assay (western blot), Molt4 wild-type cells, CDK4; type: cell-based; parameters: levels of CDK4, CDK6, and tubulin in wild-type (WT) or cereblon knockout (CRBN−/−) Molt4 cells; endogenous in cells; host or cells: Molt4 cells, wild-type or cereblon knockout (CRBN-/-); conditions: wild-type (WT) Molt4 cells, various concentrations, FIG. 2
Text: as §1, §2

T1 sequence (P11802 whole entry): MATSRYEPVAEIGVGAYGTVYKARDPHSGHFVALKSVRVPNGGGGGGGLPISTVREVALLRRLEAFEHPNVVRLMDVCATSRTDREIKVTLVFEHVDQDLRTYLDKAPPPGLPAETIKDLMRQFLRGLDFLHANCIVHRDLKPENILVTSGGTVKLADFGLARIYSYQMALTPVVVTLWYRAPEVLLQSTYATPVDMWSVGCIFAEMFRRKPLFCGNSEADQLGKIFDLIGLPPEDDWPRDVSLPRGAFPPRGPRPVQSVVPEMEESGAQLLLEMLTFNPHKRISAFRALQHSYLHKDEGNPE

- levels of CDK4 (western blot) [1]: unaffected
- levels of CDK4 (western blot) [2]: unaffected
Structure (SMILES): CC(=O)c1c(C)c2cnc(Nc3ccc(N4CCN(CC(=O)NCCOCCOCCOCCNc5cccc6c5C(=O)N(C5CCC(=O)NC5=O)C6=O)CC4)cn3)nc2n(C2CCCC2)c1=O (centres unmarked) [Compound I-3, 2-(4-(6-((6-acetyl-8-cyclopentyl-5-methyl-7-oxo-7,8-dihydropyrido[2,3-d]pyrimidin-2-yl)amino)pyridin-3-yl)piperazin-1-yl)-N-(2-(2-(2-(2-((2-(2,6-dioxopiperidin-3-yl)-1,3-dioxoisoindolin-4-yl)amino)ethoxy)ethoxy)ethoxy)ethyl)acetamide]
